Laboratory results published in patent US20160015033A1, “COMPOUNDS DERIVED FROM HERBICIDAL CARBOXYLIC ACIDS AND TETRAALKYLAMMONIUM OR (ARYLALKYL)TRIALKYLAMMONIUM HYDROXIDES” (DOW AGROSCIENCES LLC, priority 2014, published 2016).

Experiments:
[1] = tested on: grapes (Vitis labrusca L.); experiment: Volatility evaluation: injury to grapes from vapor exposure; settings: wheat sprayed at 11200 g ae/ha, 24 hour vapor exposure at 40° C., evaluated 7 days after exposure
Description: Four pots of wheat (Triticum aestivum L.) grown in 4 inch square pots were sprayed at 11200 g ae/ha with each of the different forms of 2,4-D. Treatments were applied with a tracksprayer manufactured by Allen Machine Works. The sprayer utilized an 8002E spray nozzle, spray pressure of 262 kPa pressure and speed of 1.5 mph (2.4 km/h) to deliver 187 L/Ha. The nozzle height was 46 cm above the plant canopy. The growth stage of the wheat was 1 to 2 leaf. The wheat plants were allowed to thoroughly dry to ensure that none of the spray solution was present when they were moved into a clean pot flat. A known sensitive species, grapes (Vitis labrusca L.) were placed at the opposite end of the flat. All of the pots were covered with a humidome with small ½ inch (1.27 cm) diameter holes cut into the end where the wheat was placed and a small box fan powered with a battery in the other end to pull air across the treated wheat plants and over the top of grapes. Plants were placed into a growth chamber with the temperature set at 40° C. with a 14 hour day and a 10 hour night cycle. A 24 hour exposure period was used after which the sensitive plants were then removed and placed in the greenhouse and evaluated for injury from vapor exposure to the treatments.

[2] = tested on: Kochia Kochia scoparia; experiment: Post-emergence greenhouse herbicide evaluation, Kochia; type: in vivo; settings: 560 g ae/ha, 14 days after application, visual injury 0 to 100% vs untreated control
Description: (§1) A peat based potting soil, Metro-mix 360, was used as the soil media for this test. Metro-mix is a growing medium consisting of 35 to 45% specially processed Coconut Coir Pith, 10 to 20% horticultural grade vermiculite, 15 to 25% processed Ash Bark, 20 to 30% choice Canadian Sphagnum Peat Moss and proprietary nutrients and other ingredients. Several seeds of each species were to planted in 10 cm square pots and top watered twice daily. Plant material was propagated in the greenhouse at a constant temperature of 26 to 28° C. and 50 to 60% relative humidity. Natural light was supplemented with 1000-watt metal halide overhead lamps with an average illumination of 500 μE m^−2 s^−1 photosynthetic active radiation (PAR). Day length was 16 hours. Plant material was top-watered prior to treatment and sub-irrigated after treatment. […] The growth stage of the various weed species ranged from 2 to 4 leaf. Treatments were replicated 3 times. Plants were returned to the greenhouse after treatment and sub-watered throughout the duration of the to experiment. Plant material was fertilized twice weekly with Hoagland's fertilizer solution. Percent visual injury assessments were made on a scale of 0 to 100% as compared to the untreated control plants (where 0 is equal to no injury and 100 is equal to complete death of the plant).

[3] = tested on: Broadleaf Dock Rumex obtusifolia; experiment: Post-emergence greenhouse herbicide evaluation, Broadleaf Dock; type: in vivo; settings: 560 g ae/ha, 14 days after application, visual injury 0 to 100% vs untreated control
Description: as §1

Row | Compound | % Injury to grapes from vapor exposure [1] | % Control Kochia Kochia scoparia [2] | % Control Broadleaf Dock Rumex obtusifolia [3]
1 | CNC.O=C(O)COc1ccc(Cl)cc1Cl [2,4-D dimethylamine (DMA), 2,4-D dimethylamine, reference compound] | 78% | 86% | 77%
2 | CCCCOCCOC(=O)COc1ccc(Cl)cc1Cl [2,-4-D butoxyethylester (BEE), 2,-4-D butoxyethylester] | 100% | – | –
3 | C[N+](C)(C)C.O=C([O-])COc1ccc(Cl)cc1Cl [Compound 1a] | – | 83% | 77%
4 | CC[N+](CC)(CC)CC.O=C([O-])COc1ccc(Cl)cc1Cl [Compound 1b] | 0% | 89% | 79%
5 | CCC[N+](CCC)(CCC)CCC.O=C([O-])COc1ccc(Cl)cc1Cl [Compound 1c] | – | 83% | 73%
6 | C[N+](C)(C)CCO.O=C([O-])COc1ccc(Cl)cc1Cl [Compound 1e] | – | 86% | 68%
7 | C[N+](C)(C)C.O=C([O-])COc1nc(Cl)c(Cl)cc1Cl [Compound 2a] | – | 79% | 85%
8 | CC[N+](CC)(CC)CC.O=C([O-])COc1nc(Cl)c(Cl)cc1Cl [Compound 2b] | 6% | 88% | 79%
9 | CCC[N+](CCC)(CCC)CCC.O=C([O-])COc1nc(Cl)c(Cl)cc1Cl [Compound 2c] | – | 95% | 79%
10 | COc1c(Cl)ccc(Cl)c1C(=O)[O-].C[N+](C)(C)C [Compound 4a] | 12% | – | –
11 | CCN(CC)CC.O=C(O)COc1nc(Cl)c(Cl)cc1Cl [Triclopyr triethylamine (TEA), Triclopyr triethylamine, reference compound] | 57% | 91% | 81%
12 | Dicamba DMA | 70% | – | –
